Where two headings read alike, the source gives them in different places. Ends that are not written are not given here.
Assays:
[1] = test system: Acinetobacter baumanii ATCC 19606; format: cell-based; details: ATCC 19606, 20 h
Description: (§1) The minimal inhibitory concentration (MIC) of all screened peptides were determined by the microbroth dilution method. Bacterial strains included four Gram‐negative strains (Acinetobacter baumanii ATCC 17978, Acinetobacter baumanii ATCC 19606, Escherichia coli ATCC 25922, Escherichia coli DH5 α ) and seven Gram‐positive strains (Staphylococcus aureus ATCC 25923, Staphylococcus aureus ATCC 6538, Bacillus subtilis ATCC 6633, Enterococcus faecalis ATCC 29212, Micrococcus luteus CMCC(B) 28001, Staphylococcus capitis ATCC 27842, Staphylococcus hominis ATCC 27844). Bacteria were incubated overnight at 37 °C and diluted to 5 × 10^5 cfu·mL^−1. Then 99 µL bacterial suspension was added into each well of a 96‐well plate. Peptides were dissolved in cation adjusted Mueller‐Hinton (CAMHB) medium at an initial concentration of 1 mg·mL^−1 and then diluted in twofold gradient concentrations, ranging from 0.125 to 128 µg·mL^−1 with 1 µL in each well. The plate was placed in incubator for 20 h at 37 °C. The lowest concentration of peptide causing no observed bacteria grow was its MIC.

[2] = test system: Bacillus subtilis ATCC 6633; format: cell-based; details: ATCC 6633, 20 h
Description: as §1

[3] = test system: Enterococcus faecalis ATCC 29212; format: cell-based; details: ATCC 29212, 20 h
Description: as §1

[4] = test system: Micrococcus luteus CMCC(B) 28001; format: cell-based; details: CMCC(B) 28001, 20 h
Description: as §1

[5] = test system: Staphylococcus capitis ATCC 27842; format: cell-based; details: ATCC 27842, 20 h
Description: as §1

[6] = test system: Staphylococcus hominis ATCC 27844; format: cell-based; details: ATCC 27844, 20 h
Description: as §1

[7] = synthesis report, ref ChinaPeptides Co., Ltd. quality reports, Figure S7, cited from earlier work
[8] = test system: Acinetobacter baumanii ATCC 17978; format: cell-based; details: ATCC 17978, 20 h
Description: as §1

[9] = test system: Escherichia coli ATCC 25922; format: cell-based; details: ATCC 25922, 20 h
Description: as §1

Escherichia coli DH5α = format: cell-based; details: 20 h
Description: as §1

[10] = test system: Staphylococcus aureus ATCC 25923; format: cell-based; details: ATCC 25923, 20 h
Description: as §1

[11] = test system: Staphylococcus aureus ATCC 6538; format: cell-based; details: ATCC 6538, 20 h
Description: as §1

HEK293T cells = experiment: Cytotoxicity, Alamar Blue assay; format: cell-based
Description: Cytotoxicity was evaluated using the Alamar Blue assay on HEK293T cells. HEK293T cells were cultured in DMEM supplemented with 10% FBS and incubated at 37 °C with 5% CO2. Amphotericin B and staurosporine were used as controls. Peptide solutions were diluted in PBS (pH 7.4) with final concentrations ranging from 1 to 128 µg·mL^−1. The cells were treated with peptides for 72 h. After that, 10 µL Alamar Blue was added into each well. The plate was incubated for 4 hours under dark condition and detected the absorbance at 570 nm. The inhibition rate of cell growth was calculated via (OD570, peptide ‐ OD570, PBS) / (OD570, staurosporine ‐ OD570, PBS). The half maximal cytotoxic concentration (CC50) was fitted with GraphPad Prism. Each test was conducted in triplicate.

## KVKVLIIRKLTRHIAKLKSKK [Peptide 58]
[1]
  MIC A. baumannii ATCC 19606: 128 µg/mL
[2]
  MIC B. subtilis ATCC 6633: 8 µg/mL
[3]
  MIC E. faecalis ATCC 29212: 128 µg/mL
[4]
  MIC M. luteus CMCC(B) 28001: 8 µg/mL
[5]
  MIC S. capitis ATCC 27842: 4 µg/mL
[6]
  MIC S. hominis ATCC 27844: 2 µg/mL
[7]; in 15%ACN/85%H2O
  Solubility: 1000 µg/mL

## KKIASIIYAHVKALRARKILDNLKRLAANRP [Peptide 615]
[8]
  MIC A. baumannii ATCC 17978: 32 µg/mL
[1]
  MIC A. baumannii ATCC 19606: 16 µg/mL
[2]
  MIC B. subtilis ATCC 6633: 16 µg/mL
[9]
  MIC E. coli ATCC 25922: 64 µg/mL
Escherichia coli DH5α
  MIC E. coli DH5α: 8 µg/mL
[4]
  MIC M. luteus CMCC(B) 28001: 64 µg/mL
[5]
  MIC S. capitis ATCC 27842: 16 µg/mL
[6]
  MIC S. hominis ATCC 27844: 8 µg/mL
[7]; in 15%ACN/85%H2O
  Solubility: 1000 µg/mL

## AKLVALVNKFIGYLKQNTYC [Peptide 201]
[2]
  MIC B. subtilis ATCC 6633: 32 µg/mL
[7]; in 25%ACN/75%H2O
  Solubility: 1000 µg/mL

## IYKILQLFHKRFKKGFFG [Peptide 1304]
[8]
  MIC A. baumannii ATCC 17978: 16 µg/mL
[1]
  MIC A. baumannii ATCC 19606: 16 µg/mL
[2]
  MIC B. subtilis ATCC 6633: 4 µg/mL
[3]
  MIC E. faecalis ATCC 29212: 128 µg/mL
[9]
  MIC E. coli ATCC 25922: 64 µg/mL
Escherichia coli DH5α
  MIC E. coli DH5α: 32 µg/mL
[4]
  MIC M. luteus CMCC(B) 28001: 16 µg/mL
[10]
  MIC S. aureus ATCC 25923: 128 µg/mL
[11]
  MIC S. aureus ATCC 6538: 16 µg/mL
[5]
  MIC S. capitis ATCC 27842: 4 µg/mL
[6]
  MIC S. hominis ATCC 27844: 4 µg/mL
[7]; in 15%ACN/85%H2O
  Solubility: 1000 µg/mL

## GPIHRLINPFFNLLQGIFTN [Peptide 98]
[2]
  MIC B. subtilis ATCC 6633: 32 µg/mL
[4]
  MIC M. luteus CMCC(B) 28001: 128 µg/mL
[7]; in 25%ACN/75%H2O
  Solubility: 1000 µg/mL

## C[C@@H]1[C@H](O)[C@@H](C)/C=C/C=C/C=C/C=C/C=C/C=C/C=C/[C@H](O[C@@H]2O[C@H](C)[C@@H](O)[C@H](N)[C@@H]2O)C[C@@H]2O[C@](O)(C[C@@H](O)C[C@@H](O)[C@H](O)CC[C@@H](O)C[C@@H](O)CC(=O)O[C@H]1C)C[C@H](O)[C@H]2C(=O)O [Amphotericin B]
HEK293T cells
  Cytotoxicity CC50 HEK293T: 67.06 µg/mL

## GFKSKLEQISGICRPLFAAMWK [Peptide 68]
[2]
  MIC B. subtilis ATCC 6633: 64 µg/mL
[4]
  MIC M. luteus CMCC(B) 28001: 128 µg/mL
[5]
  MIC S. capitis ATCC 27842: 16 µg/mL
[6]
  MIC S. hominis ATCC 27844: 32 µg/mL
HEK293T cells
  Cytotoxicity CC50 HEK293T: > 128 µg/mL
[7]; in 25%ACN/75%H2O
  Solubility: 1000 µg/mL

## KLAKLLKLLLWAQNELDQKK [Peptide 623]
[8]
  MIC A. baumannii ATCC 17978: 32 µg/mL
[1]
  MIC A. baumannii ATCC 19606: 32 µg/mL
[2]
  MIC B. subtilis ATCC 6633: 8 µg/mL
[9]
  MIC E. coli ATCC 25922: 128 µg/mL
Escherichia coli DH5α
  MIC E. coli DH5α: 128 µg/mL
[4]
  MIC M. luteus CMCC(B) 28001: 64 µg/mL
[10]
  MIC S. aureus ATCC 25923: 128 µg/mL
[11]
  MIC S. aureus ATCC 6538: 32 µg/mL
[5]
  MIC S. capitis ATCC 27842: 64 µg/mL
[6]
  MIC S. hominis ATCC 27844: 16 µg/mL
[7]; in 15%ACN/85%H2O
  Solubility: 1000 µg/mL

## CN[C@@H]1C[C@H]2O[C@@](C)([C@@H]1OC)n1c3ccccc3c3c4c(c5c6ccccc6n2c5c31)C(=O)NC4 [Staurospotine, Staurosporine]
HEK293T cells; HEK293T, Alamar Blue, 72 h treatment, 1 to 128 µg/mL, absorbance 570 nm, triplicate
  Cytotoxicity CC50 HEK293T: 0.26 µg/mL

Source: publication PMC12904036, “Mechanism‐Driven Screening of Membrane‐Targeting and Pore‐Forming Antimicrobial Peptides” (Advanced Science, 2025)
